{"source": "patent EP0082731A1", "about": "“The use of peptides as medicaments” (NOVO INDUSTRI A/S, priority 1981, dated 1983)", "key": {"[1]": {"test_system": "rat free fat cells", "assay": "Lipolytic effect on rat free fat cells in vitro", "format": "cell-based", "conditions": "compared with glucagon"}, "[2]": {"test_system": "rats", "assay": "Experiment B1: effect on blood glucose in rats in vivo, intravenous glucose infusion", "set-up": "species or system Wistar rats", "conditions": "for Blood glucose: rats, i.v. glucose 2 mg/min 0-30 min, then infusion of 1 mg glucagon(1-21) 30-60 min", "method": "Blood samples were drawn from the carotid artery at the times 0, 2, 5, 10, 20, 25, 30, 40, 50, and 60 minutes and blood glucose values were determined by the hexokinase method on an autoanalyzer. The blood glucose values are stated in Table II below."}, "[3]": {"test_system": "isolated perfused rat pancreas", "assay": "IRI (insulin) release from the isolated perfused rat pancreas", "description": "Such a use should be especially safe as no hypoglycaemia will occur during treatment because of the lack of IRI releasing effect in the presence of hypoglycaemia and normoglycaemia.\nFurthermore, it is stated therein that compounds of formula I show no or minor, negligible metabolic effects. […] Based thereupon it is surprising that compounds of formula I have an insulin releasing effect on animals primed with glucose corresponding to hyperglycaemia."}, "[4]": {"test_system": "pigs", "assay": "Experiment C1: effect on plasma glucose in pigs during intravenous glucose infusion", "format": "in vivo, pigs (Danish breed/Yorkshire)", "conditions": "for Plasma glucose: pigs, cross-over, i.v. glucose 0.7 g/kg/h + glucagon(1-21) 100 µg/kg/h 0-120 min", "method": "The effect of glucagon(1-21) on plasma glucose levels was investigated during an intravenous glucose infusion. 4 female pigs (Danish breed/Yorkshire) weighing 30 kg (+/- 3 kg) were dosed with glucose (0.7 g/kg/h) as an intravenous infusion and with the same glucose infusion + infusion of glucagon(-1-21) (100µg/kg/h) from 0 to 120 minutes. The experiment was carried out as a cross-over experiment. The pigs were infused through intravenous ear catheters and blood samples were taken from the other ear at the times 0, 15, 30, 45, 60, 75, 90, 105, and 120 minutes. Glucose was analyzed by the hexokinase method and the blood glucose values are stated in Table IV below."}, "[5]": {"test_system": "NMRI mice", "assay": "Experiment E: acute toxicity study", "format": "in vivo", "conditions": "10 mg intravenously as a bolus, about 500 mg/kg body weight"}, "[6]": {"test_system": "rats", "assay": "Experiment A: effect on IRI-release in glucose-infused rats in vivo (RIA on plasma)", "set-up": "species or system Wistar strain", "conditions": "anaesthetized rats, i.v. glucose 1.5 mg/min + glucagon(1-21) 100 µg/kg/h", "method": "10 male rats, Wistar strain, 150 g (+/- 5 g) were anaesthetized with Pentobarbital. Polyethylene catheters were inserted into the right carotid artery for blood sampling and the left jugular vein for infusions. The rats were divided into two groups with 5 animals in each group. One group was infused with glucose (1.5 mg/min) from 0 to 60 minutes (placebo) and one group was infused with glucose (1.5 mg/min) + glucagon(1-21) (100 µg/kg/h) from […]. Blood was sampled into glasses on ice containing heparin (250 IU/ml) and aprotinin (600 KIU/ml) at the times 0, 1, 10, 20, 30, 40, 50, and 60 minutes. Insulin was determined by radio- immuno assay (RIA) on plasma."}, "[7]": {"test_system": "isolated perfused rat pancreas", "conditions": "buffer glucose concentration 1.0 mg/ml corresponding to normoglycaemia or below; statement of Danish patent application No. 2885/81; cited from earlier work"}, "[8]": {"test_system": "rats", "assay": "Experiment B2: oral glucose tolerance test in rats", "format": "in vivo, Wistar rats", "conditions": "glucose 5 g/kg perorally at 0 and 60 min, glucagon(1-21) 1 mg/kg at 0, 30, 60, 90 min", "method": "The effect of glucagon(1-21) was investigated in rats during an oral glucose tolerance test. 20 male Wistar rats were divided into 2 groups of 10 rats-and dosed as follows: Both groups were dosed with glucose (5 g/kg, perorally) at 0 and 60 minutes. The placebo group was dosed with 1 ml of 0.9% saline with 0.1% HSA intraperitoneally at the times 0, 30, 60, and 90 minutes. The other group was dosed with glucagon(1-21) (1 mg/kg) in 0.9% saline with HSA . at the times 0, 30, 60, and 90 minutes. Blood samples were drawn from the tails at the times -5, 0, 15, 30, 45, 60, 90, and 120 minutes for blood glucose determination. The blood glucose values are stated in Table III below."}, "[9]": {"test_system": "Normoglycaemic Rats", "assay": "Experiment D: effect on plasma glucose and plasma IRI levels in normoglycaemic rats", "format": "in vivo, Wistar rats", "conditions": "for Blood glucose / Plasma IRI: i.v. injection at 0 min, equimolar doses (glucagon 1 mg/kg, glucagon(1-21) 0.77 mg/kg), mean, N = 10", "method": "Glucagon (-1 mg/kg) and an equimolar dosis of glucagon(1-21), i.e. 0.77 mg/kg, were injected intravenously at the beginning time (time: 0 minutes) to normally fed male Wistar rats weighing 150 g (+/- 5 g). Blood samples were taken from the orbital plexus at the times -5, 2, 5, 10, 15, 30, and 60 minutes. Blood glucose was assayed according to the hexokinase method and plasma insulin was assayed by RIA. […] Contrary to glucagon, glucagon(1-21) had no effect on these parameters. Mean blood glucose values (N = 10) are stated in Table VI below, and mean plasma IRI values (N = 10) are stated in Table VII below."}, "[10]": {"conditions": "normally fed rats, i.v., glucagon 1 mg/kg, glucagon(1-21) 0.77 mg/kg"}}, "note": "Where two headings read alike, the source gives them in different places."}
{"substance": "glucagon-(1-21)-heneicosapeptide (HSQGTFTSDYSKYLDSRRAQD; Glucagon; UniProt P01275 53-73, looked up, fragment) [glucagon(1-21)]", "values": [{"measurement": "lipolytic effect", "setting": "[1]", "value": "negligible"}, {"measurement": "glucose tolerance", "setting": "[2]; glucose primed rats, infused intravenously", "value": "improves the glucose tolerance"}, {"measurement": "Blood glucose", "setting": "[2]; time 0 min", "value": 1.0, "unit": "mg/mL"}, {"measurement": "Blood glucose", "setting": "[2]; time 2 min", "value": 1.2, "unit": "mg/mL"}, {"measurement": "Blood glucose", "setting": "[2]; time 5 min", "value": 1.4, "unit": "mg/mL"}, {"measurement": "Blood glucose", "setting": "[2]; time 10 min", "value": 1.5, "unit": "mg/mL"}, {"measurement": "Blood glucose", "setting": "[2]; time 20 min", "value": 1.7, "unit": "mg/mL"}, {"measurement": "Blood glucose", "setting": "[2]; time 25 min", "value": 1.9, "unit": "mg/mL"}, {"measurement": "Blood glucose", "setting": "[2]; time 30 min", "value": 1.9, "unit": "mg/mL"}, {"measurement": "Blood glucose", "setting": "[2]; time 40 min", "value": 1.3, "unit": "mg/mL"}, {"measurement": "Blood glucose", "setting": "[2]; time 50 min", "value": 1.0, "unit": "mg/mL"}, {"measurement": "Blood glucose", "setting": "[2]; time 60 min", "value": 0.8, "unit": "mg/mL"}, {"measurement": "insulin releasing effect", "setting": "[3]; at hyperglycaemia", "value": "have this effect"}, {"measurement": "insulin release", "setting": "[3]; buffer glucose concentration 0.6 mg/ml corresponding to hypoglycaemia, infused to the same concentration as glucagon", "value": "no such effect"}, {"measurement": "IRI (immunoreactive insulin) releasing effect, as share of glucagon's", "setting": "[3]; buffer glucose concentration 1.5 mg/ml corresponding to mild hyperglycaemia", "value": "about 60%"}, {"measurement": "IRI (immunoreactive insulin) releasing effect, as share of glucagon's", "setting": "[3]; buffer glucose concentration 2.0 mg/ml corresponding to hyperglycaemia", "value": "about 85%"}, {"measurement": "glucose tolerance", "setting": "[4]; glucose primed pigs, infused intravenously", "value": "improves the glucose tolerance"}, {"measurement": "Plasma glucose", "setting": "[4]; time 0 min", "value": 0.9, "unit": "mg/mL"}, {"measurement": "Plasma glucose", "setting": "[4]; time 15 min", "value": 1.5, "unit": "mg/mL"}, {"measurement": "Plasma glucose", "setting": "[4]; time 30 min", "value": 1.7, "unit": "mg/mL"}, {"measurement": "Plasma glucose", "setting": "[4]; time 45 min", "value": 1.8, "unit": "mg/mL"}, {"measurement": "Plasma glucose", "setting": "[4]; time 60 min", "value": 1.9, "unit": "mg/mL"}, {"measurement": "Plasma glucose", "setting": "[4]; time 75 min", "value": 1.8, "unit": "mg/mL"}, {"measurement": "Plasma glucose", "setting": "[4]; time 90 min", "value": 2.0, "unit": "mg/mL"}, {"measurement": "Plasma glucose", "setting": "[4]; time 105 min", "value": 1.9, "unit": "mg/mL"}, {"measurement": "Plasma glucose", "setting": "[4]; time 120 min", "value": 1.9, "unit": "mg/mL"}, {"measurement": "adverse effects", "setting": "[5]", "value": "no adverse effects"}, {"measurement": "deaths", "setting": "[5]", "value": "No deaths occurred"}, {"measurement": "IRI", "setting": "[6]; time 0 min", "value": 18, "unit": "µU/ml"}, {"measurement": "IRI", "setting": "[6]; time 1 min", "value": 43, "unit": "µU/ml"}, {"measurement": "IRI", "setting": "[6]; time 10 min", "value": 48, "unit": "µU/ml"}, {"measurement": "IRI", "setting": "[6]; time 20 min", "value": 62, "unit": "µU/ml"}, {"measurement": "IRI", "setting": "[6]; time 30 min", "value": 56, "unit": "µU/ml"}, {"measurement": "IRI", "setting": "[6]; time 40 min", "value": 56, "unit": "µU/ml"}, {"measurement": "IRI", "setting": "[6]; time 50 min", "value": 60, "unit": "µU/ml"}, {"measurement": "IRI", "setting": "[6]; time 60 min", "value": 55, "unit": "µU/ml"}, {"measurement": "insulin release", "setting": "[7]", "value": "does not release insulin"}, {"measurement": "Blood glucose", "setting": "[8]; time 0 min", "value": 0.96, "unit": "mg/mL"}, {"measurement": "Blood glucose", "setting": "[8]; time 15 min", "value": 1.32, "unit": "mg/mL"}, {"measurement": "Blood glucose", "setting": "[8]; time 30 min", "value": 1.35, "unit": "mg/mL"}, {"measurement": "Blood glucose", "setting": "[8]; time 45 min", "value": 1.23, "unit": "mg/mL"}, {"measurement": "Blood glucose", "setting": "[8]; time 60 min", "value": 1.36, "unit": "mg/mL"}, {"measurement": "Blood glucose", "setting": "[8]; time 90 min", "value": 1.37, "unit": "mg/mL"}, {"measurement": "Blood glucose", "setting": "[8]; time 120 min", "value": 1.37, "unit": "mg/mL"}, {"measurement": "Blood glucose", "setting": "[8]; time -5 min", "value": 0.89, "unit": "mg/mL"}, {"measurement": "hyperglycaemia", "setting": "[9]; in vivo in normally fed rats", "value": "does not cause hyperglycaemia"}, {"measurement": "insulin release", "setting": "[9]; in vivo in normally fed rats", "value": "does not cause hyperglycaemia or release insulin"}, {"measurement": "IRI release and plasma glucose levels", "setting": "[9]; infused to rats and pigs with plasma glucose levels below 1.2 mg/ml", "value": "neither release IRI nor influence the plasma glucose levels"}, {"measurement": "Blood glucose", "setting": "[9]; normally fed rats, time 2 min", "value": 1.1, "unit": "mg/mL"}, {"measurement": "Plasma IRI", "setting": "[9]; normally fed rats, time 2 min", "value": 30, "unit": "µU/ml"}, {"measurement": "Blood glucose", "setting": "[9]; normally fed rats, time 5 min", "value": 1.1, "unit": "mg/mL"}, {"measurement": "Plasma IRI", "setting": "[9]; normally fed rats, time 5 min", "value": 33, "unit": "µU/ml"}, {"measurement": "Blood glucose", "setting": "[9]; normally fed rats, time 10 min", "value": 1.2, "unit": "mg/mL"}, {"measurement": "Plasma IRI", "setting": "[9]; normally fed rats, time 10 min", "value": 35, "unit": "µU/ml"}, {"measurement": "Blood glucose", "setting": "[9]; normally fed rats, time 15 min", "value": 1.3, "unit": "mg/mL"}, {"measurement": "Plasma IRI", "setting": "[9]; normally fed rats, time 15 min", "value": 43, "unit": "µU/ml"}, {"measurement": "Blood glucose", "setting": "[9]; normally fed rats, time 30 min", "value": 1.3, "unit": "mg/mL"}, {"measurement": "Plasma IRI", "setting": "[9]; normally fed rats, time 30 min", "value": 38, "unit": "µU/ml"}, {"measurement": "Blood glucose", "setting": "[9]; normally fed rats, time 60 min", "value": 1.3, "unit": "mg/mL"}, {"measurement": "Plasma IRI", "setting": "[9]; normally fed rats, time 60 min", "value": 30, "unit": "µU/ml"}, {"measurement": "Blood glucose", "setting": "[9]; normally fed rats, time -5 min", "value": 1.0, "unit": "mg/mL"}, {"measurement": "Plasma IRI", "setting": "[9]; normally fed rats, time -5 min", "value": 32, "unit": "µU/ml"}, {"measurement": "effect on blood glucose", "setting": "[9]; [10]", "value": "no effect"}, {"measurement": "effect on plasma IRI", "setting": "[9]; [10]", "value": "no effect"}]}
